Source: patent US10898475B2, “Bach1 inhibitors in combination with Nrf2 activators and pharmaceutical compositions thereof” (vTv Therapeutics LLC, priority 2014, dated 2021)

Tested on: HMOX1 in Normal Human Lung Fibroblasts (NHLF)
Assay: HMOX1 Protein Expression (immunostaining, fold induction or % positive cells over DMSO)
Conditions: for Hill slope of DMF dose response curves in Table 2: % Positive HMOX
Method: Normal Human Lung Fibroblasts (NHLF) obtained from Lonza were cultured in T-225 flasks using conditions recommended by the vendor (FGM-2 medium supplemented with 2% fetal bovine serum (FBS), fibroblast growth factor (hFGF-B) 0.5 mL, insulin 0.5 mL, and gentamicin/amphotericin-B 0.5 mL at 37° C. in a humidified atmosphere of 5% CO2).
For assays, cell were thawed and placed into culture in T225 flasks, grown to be 80% confluent, and harvested as described by the vendor. NHLF cells (2.5×10^4 cells per well) were plated in 384 well optilux tissue culture (BD) plates and incubated overnight in media prior to exposure to compound. Cells were incubated with DMSO or various combinations of either an Nrf2 Activator (DMF (dimethyl fumarate)/CDDO-Me) or a Bach1 Inhibitor for 16-18 hr. Cells were then fixed and permeabilized prior to incubation with HMOX1 antibody (abcam; 1:300 dilution in 1% BSA in PBS) for 1 hour. Cells were then washed and incubated with a solution of fluorescently-coupled goat anti-mouse antibody (Alexa 488 1:400 dilution Invitrogen) and Hoechst nuclear stain (1:2000; Invitrogen) in PBS containing 1% BSA for 1 hr. Immunostaining was detected using a GE InCell 2000 instrument at the following wavelengths: Hoechst Ex/Em 360/535 and Alexa 488 Ex/Em 480/535. Results were analyzed using GE InCell Analyzer software and represented as the increase fold of HMOX1 induction (Fold induction/FI) or the percentage of HMOX1 positive (% positive) cells over DMSO.

Cn1c(Nc2nc3ccc(C(F)(F)F)cc3s2)nc2cc(C(=O)NCCOCCO)ccc21 [HPP-D, 1-Methyl-2-(6-trifluoromethyl-benzothiazol-2-ylamino)-1H-benzoimidazole-5-carboxylic acid [2-(2-hydroxy-ethoxy)-ethyl]-amide]
Hill slope of DMF dose response curves in Table 2 (Bach1 Inhibitor Conc. 0.019 uM): 2.23 | Hill slope of DMF dose response curves in Table 2 (Bach1 Inhibitor Conc. 0.039 uM): 1.69 | Hill slope of DMF dose response curves in Table 2 (Bach1 Inhibitor Conc. 0.078 uM): 0.90 | Hill slope of DMF dose response curves in Table 2 (Bach1 Inhibitor Conc. 0.156 uM): 0.23 | % Cells Positive HMOX (Cpd. 0.019 uM, DMF 0 uM): 19.42% | Fold Induction of HMOX (Cpd. 0.019 uM, DMF 0 uM): 2.08 fold | % Cells Positive HMOX (Cpd. 0.019 uM, DMF 0.03 uM): 4.94% | Fold Induction of HMOX (Cpd. 0.019 uM, DMF 0.03 uM): 1.31 fold | % Cells Positive HMOX (Cpd. 0.019 uM, DMF 0.1 uM): 4.52% | Fold Induction of HMOX (Cpd. 0.019 uM, DMF 0.1 uM): 1.23 fold | % Cells Positive HMOX (Cpd. 0.019 uM, DMF 0.3 uM): 7.63% | Fold Induction of HMOX (Cpd. 0.019 uM, DMF 0.3 uM): 1.44 fold | % Cells Positive HMOX (Cpd. 0.019 uM, DMF 1 uM): 26.41% | Fold Induction of HMOX (Cpd. 0.019 uM, DMF 1 uM): 2.17 fold | % Cells Positive HMOX (Cpd. 0.019 uM, DMF 3 uM): 80.18% | Fold Induction of HMOX (Cpd. 0.019 uM, DMF 3 uM): 3.55 fold | % Cells Positive HMOX (Cpd. 0.019 uM, DMF 10 uM): 96.12% | Fold Induction of HMOX (Cpd. 0.019 uM, DMF 10 uM): 5.12 fold | % Cells Positive HMOX (Cpd. 0.019 uM, DMF 30 uM): 84.02% | Fold Induction of HMOX (Cpd. 0.019 uM, DMF 30 uM): 4.90 fold | % Cells Positive HMOX (Cpd. 0.039 uM, DMF 0 uM): 28.04% | Fold Induction of HMOX (Cpd. 0.039 uM, DMF 0 uM): 2.51 fold | % Cells Positive HMOX (Cpd. 0.039 uM, DMF 0.03 uM): 11.95% | Fold Induction of HMOX (Cpd. 0.039 uM, DMF 0.03 uM): 1.81 fold | % Cells Positive HMOX (Cpd. 0.039 uM, DMF 0.1 uM): 6.75% | Fold Induction of HMOX (Cpd. 0.039 uM, DMF 0.1 uM): 1.52 fold | % Cells Positive HMOX (Cpd. 0.039 uM, DMF 0.3 uM): 18.66% | Fold Induction of HMOX (Cpd. 0.039 uM, DMF 0.3 uM): 1.81 fold | % Cells Positive HMOX (Cpd. 0.039 uM, DMF 1 uM): 38.70% | Fold Induction of HMOX (Cpd. 0.039 uM, DMF 1 uM): 2.60 fold | % Cells Positive HMOX (Cpd. 0.039 uM, DMF 3 uM): 78.65% | Fold Induction of HMOX (Cpd. 0.039 uM, DMF 3 uM): 4.00 fold | % Cells Positive HMOX (Cpd. 0.039 uM, DMF 10 uM): 99.17% | Fold Induction of HMOX (Cpd. 0.039 uM, DMF 10 uM): 5.64 fold | % Cells Positive HMOX (Cpd. 0.039 uM, DMF 30 uM): 91.91% | Fold Induction of HMOX (Cpd. 0.039 uM, DMF 30 uM): 5.52 fold | % Cells Positive HMOX (Cpd. 0.078 uM, DMF 0 uM): 73.95% | Fold Induction of HMOX (Cpd. 0.078 uM, DMF 0 uM): 4.34 fold | % Cells Positive HMOX (Cpd. 0.078 uM, DMF 0.03 uM): 33.51% | Fold Induction of HMOX (Cpd. 0.078 uM, DMF 0.03 uM): 2.35 fold | % Cells Positive HMOX (Cpd. 0.078 uM, DMF 0.1 uM): 44.61% | Fold Induction of HMOX (Cpd. 0.078 uM, DMF 0.1 uM): 2.87 fold | % Cells Positive HMOX (Cpd. 0.078 uM, DMF 0.3 uM): 61.50% | Fold Induction of HMOX (Cpd. 0.078 uM, DMF 0.3 uM): 3.21 fold | % Cells Positive HMOX (Cpd. 0.078 uM, DMF 1 uM): 84.85% | Fold Induction of HMOX (Cpd. 0.078 uM, DMF 1 uM): 3.83 fold | % Cells Positive HMOX (Cpd. 0.078 uM, DMF 3 uM): 90.28% | Fold Induction of HMOX (Cpd. 0.078 uM, DMF 3 uM): 4.20 fold | % Cells Positive HMOX (Cpd. 0.078 uM, DMF 10 uM): 97.73% | Fold Induction of HMOX (Cpd. 0.078 uM, DMF 10 uM): 6.52 fold | % Cells Positive HMOX (Cpd. 0.078 uM, DMF 30 uM): 91.28% | Fold Induction of HMOX (Cpd. 0.078 uM, DMF 30 uM): 4.80 fold | % Cells Positive HMOX (Cpd. 0.156 uM, DMF 0 uM): 96.31% | Fold Induction of HMOX (Cpd. 0.156 uM, DMF 0 uM): 6.46 fold | % Cells Positive HMOX (Cpd. 0.156 uM, DMF 0.03 uM): 92.53% | Fold Induction of HMOX (Cpd. 0.156 uM, DMF 0.03 uM): 5.22 fold | % Cells Positive HMOX (Cpd. 0.156 uM, DMF 0.1 uM): 88.16% | Fold Induction of HMOX (Cpd. 0.156 uM, DMF 0.1 uM): 4.89 fold | % Cells Positive HMOX (Cpd. 0.156 uM, DMF 0.3 uM): 94.48% | Fold Induction of HMOX (Cpd. 0.156 uM, DMF 0.3 uM): 5.17 fold | % Cells Positive HMOX (Cpd. 0.156 uM, DMF 1 uM): 97.74% | Fold Induction of HMOX (Cpd. 0.156 uM, DMF 1 uM): 6.04 fold | % Cells Positive HMOX (Cpd. 0.156 uM, DMF 3 uM): 99.20% | Fold Induction of HMOX (Cpd. 0.156 uM, DMF 3 uM): 7.69 fold | % Cells Positive HMOX (Cpd. 0.156 uM, DMF 10 uM): 100.00% | Fold Induction of HMOX (Cpd. 0.156 uM, DMF 10 uM): 7.50 fold | % Cells Positive HMOX (Cpd. 0.156 uM, DMF 30 uM): 92.22% | Fold Induction of HMOX (Cpd. 0.156 uM, DMF 30 uM): 6.18 fold | combination effect in terms of the % HMOX positive cells (combination with DMF at concentrations below their maximum effect (Table 2)): additive or greater than additive | change of Hill slope of the DMF dose response curve (FIG. 5) (upon increasing amounts of the Bach1 Inhibitor): reduced
